21 compounds from US10626112B2, “Heterocyclic sulfonamide derivative and medicine comprising same” (EA PHARMA CO., LTD., priority 2014, dated 2020) can be followed below.

pIC50: −log10 of the molar value.

For orientation: pIC50 means the IC50 on a negative log10 scale, so that one unit is a factor of ten.

This assay addresses human TRPA1 (Homo sapiens (Human), UniProt O75762). The experiment in a line: Measurement of TRPA1 antagonist activity (1): intracellular calcium increase. The settings on record: 293T cells transfected with human TRPA1 expression plasmid; allylisothiocyanate 20 μM stimulation; intracellular calcium fluorescence; read-out: hTRPA1 IC50. The class given is cell-based. Put shortly: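 HEK293T cells transiently transfected with full-length human TRPA1, loaded with Calcium4 dye in HBSS/20 mM HEPES pH 7.2. Test compound preincubated 10 min, then allylisothiocyanate added at 20 μM final and fluorescence change followed for 5 min. IC50 from sigmoid fit of percent inhibition relative to agonist and buffer controls.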
In general terms: A change in cytosolic calcium serves as a functional read-out for many receptors and channels.

Chain of human TRPA1 (O75762 whole entry): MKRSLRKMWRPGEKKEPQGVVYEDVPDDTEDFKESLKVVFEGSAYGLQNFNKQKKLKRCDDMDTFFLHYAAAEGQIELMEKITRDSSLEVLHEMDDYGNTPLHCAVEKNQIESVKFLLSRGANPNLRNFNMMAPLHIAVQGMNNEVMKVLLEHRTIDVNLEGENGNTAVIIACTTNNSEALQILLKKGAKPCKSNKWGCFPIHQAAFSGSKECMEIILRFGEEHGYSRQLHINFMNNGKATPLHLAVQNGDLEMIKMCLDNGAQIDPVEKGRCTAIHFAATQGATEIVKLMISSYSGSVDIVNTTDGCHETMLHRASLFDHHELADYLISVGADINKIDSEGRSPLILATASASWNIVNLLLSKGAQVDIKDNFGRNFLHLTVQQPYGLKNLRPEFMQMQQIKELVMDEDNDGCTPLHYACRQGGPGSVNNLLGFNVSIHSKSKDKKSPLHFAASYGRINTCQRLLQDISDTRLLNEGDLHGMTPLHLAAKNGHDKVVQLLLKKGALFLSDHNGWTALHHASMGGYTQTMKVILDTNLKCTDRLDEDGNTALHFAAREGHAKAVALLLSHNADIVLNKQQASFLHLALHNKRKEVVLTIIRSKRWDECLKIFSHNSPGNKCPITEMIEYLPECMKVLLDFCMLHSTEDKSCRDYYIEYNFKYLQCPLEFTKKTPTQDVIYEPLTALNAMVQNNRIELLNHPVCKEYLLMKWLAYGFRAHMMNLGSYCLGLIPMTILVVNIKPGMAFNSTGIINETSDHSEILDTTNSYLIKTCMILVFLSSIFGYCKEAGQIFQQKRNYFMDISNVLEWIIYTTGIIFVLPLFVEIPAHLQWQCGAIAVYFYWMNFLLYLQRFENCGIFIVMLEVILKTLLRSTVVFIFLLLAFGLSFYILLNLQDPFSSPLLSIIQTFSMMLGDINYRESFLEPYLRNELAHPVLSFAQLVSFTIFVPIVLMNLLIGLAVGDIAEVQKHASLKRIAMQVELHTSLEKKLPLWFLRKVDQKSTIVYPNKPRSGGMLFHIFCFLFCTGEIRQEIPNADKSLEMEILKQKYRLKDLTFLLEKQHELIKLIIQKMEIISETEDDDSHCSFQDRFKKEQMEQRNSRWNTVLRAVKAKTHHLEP

Take `CC#CCN([C@@H](C)C(=O)NCc1ccnc(-c2ccc(C(F)(F)F)nc2)c1)S(=O)(=O)c1cc2cc(F)ccc2o1` [Example 313, (2S)-2-[but-2-ynyl-(5-fluorobenzofuran-2-yl)sulfonyl-amino]-N-[[2-[6-(trifluoromethyl)-3-pyridyl]-4-pyridyl]methyl]propanamide]: the pIC50 is 7.43.
With `C#CCN([C@@H](C)C(=O)NCc1ccnc(-c2ccc(C(F)(F)F)nc2)c1)S(=O)(=O)c1cc2cc(F)ccc2o1` [Example 314, (2S)-2-[(5-fluorobenzofuran-2-yl)sulfonyl-prop-2-ynyl-amino]-N-[[2-[6-(trifluoromethyl)-3-pyridyl]-4-pyridyl]methyl]propanamide], the pIC50 was 8.34.
Turning to `O=C(NCc1cccc(SCc2ccc(C(F)(F)F)cc2)c1)[C@@H]1CCCN1S(=O)(=O)c1cc2ccccc2o1` [Example 315, (2S)-1-(benzofuran-2-ylsulfonyl)-N-[[3-[[4-(trifluoromethyl)phenyl]methylsulfanyl]phenyl]methyl]pyrrolidine-2-carboxamide], the pIC50 is 7.66.
For the compound `O=C(NCc1cccc([S+]([O-])Cc2ccc(C(F)(F)F)cc2)c1)[C@@H]1CCCN1S(=O)(=O)c1cc2ccccc2o1` (stereo partly drawn) [Example 316, (2S)-1-(benzofuran-2-ylsulfonyl)-N-[[3-[[4-(trifluoromethyl)phenyl]methylsulfinyl]phenyl]methyl]pyrrolidine-2-carboxamide], the pIC50 is 6.64.
As for `O=C(NCc1cccc(/C=C/c2ccc(C(F)(F)F)cc2)c1)[C@@H]1CCCN1S(=O)(=O)c1cc2ccccc2o1` [Example 317, (2S)-1-(benzofuran-2-ylsulfonyl)-N-[[3-[(E)-2-[4-(trifluoromethyl)phenyl]vinyl]phenyl]methyl]pyrrolidine-2-carboxamide], the pIC50 is 7.51.
`O=C(NCc1cccc(CCc2ccc(C(F)(F)F)cc2)c1)[C@@H]1CCCN1S(=O)(=O)c1cc2ccccc2o1` [Example 318, (2S)-1-(benzofuran-2-ylsulfonyl)-N-[[3-[2-[4-(trifluoromethyl)phenyl]ethyl]phenyl]methyl]pyrrolidine-2-carboxamide]: the negative logarithm of the IC50 (pIC50) is 7.85.
In the case of `O=C(NCc1cccc(Cc2ccccc2)c1)[C@@H]1CCCN1S(=O)(=O)c1cc2cc(F)ccc2o1` [Example 319, (2S)—N-[(3-benzylphenyl)methyl]-1-(5-fluorobenzofuran-2-yl)sulfonyl-pyrrolidine-2-carboxamide], the pIC50 was 7.57.
Consider `O=C(NCc1cccc(CNc2ccc(C(F)(F)F)cn2)c1)[C@@H]1CCCN1S(=O)(=O)c1cc2ccccc2o1` [Example 320, (2S)-1-(benzofuran-2-ylsulfonyl)-N-[[3-[[[5-(trifluoromethyl)-2-pyridyl]amino]methyl]phenyl]methyl]pyrrolidine-2-carboxamide], for which the pIC50 is 6.04.
The same measure for `O=C(NCc1cccc(Sc2ccc(C(F)(F)F)cc2)c1)[C@@H]1CCCN1S(=O)(=O)c1cc2ccccc2o1` [Example 321, (2S)-1-(benzofuran-2-ylsulfonyl)-N-[[3-[4-(trifluoromethyl)phenyl]sulfanylphenyl]methyl]pyrrolidine-2-carboxamide]: 7.48; for `O=C(NCc1cccc(S(=O)(=O)c2ccc(C(F)(F)F)cc2)c1)[C@@H]1CCCN1S(=O)(=O)c1cc2ccccc2o1` [Example 322, (2S)-1-(benzofuran-2-ylsulfonyl)-N-[[3-[4-(trifluoromethyl)phenyl]sulfonylphenyl]methyl]pyrrolidine-2-carboxamide]: 6.51; for `O=C(NCc1cccc([S+]([O-])c2ccc(C(F)(F)F)cc2)c1)[C@@H]1CCCN1S(=O)(=O)c1cc2ccccc2o1` (stereo partly drawn) [Example 323, (2S)-1-(benzofuran-2-ylsulfonyl)-N-[[3-[4-(trifluoromethyl)phenyl]sulfinylphenyl]methyl]pyrrolidine-2-carboxamide]: 6.70.
Take `O=C(NCc1cccc(S(=O)(=O)Cc2ccc(C(F)(F)F)cc2)c1)[C@@H]1CCCN1S(=O)(=O)c1cc2ccccc2o1` [Example 324, (2S)-1-(benzofuran-2-ylsulfonyl)-N-[[3-[[4-(trifluoromethyl)phenyl]methylsulfonyl]phenyl]methyl]pyrrolidine-2-carboxamide]: the pIC50 was 6.31.
Consider `O=C(NCc1cccc(C[S+]([O-])c2ccc(C(F)(F)F)cc2)c1)[C@@H]1CCCN1S(=O)(=O)c1cc2ccccc2o1` (stereo partly drawn) [Example 325, (2S)-1-(benzofuran-2-ylsulfonyl)-N-[[3-[[4-(trifluoromethyl)phenyl]sulfinylmethyl]phenyl]methyl]pyrrolidine-2-carboxamide], for which the pIC50 was 6.25.
Take `CNc1nc(CNC(=O)[C@@H]2CCCN2S(=O)(=O)c2cc3ccccc3o2)cc(-c2ccc(C(F)(F)F)cc2)n1` [Example 326, (2S)-1-(benzofuran-2-ylsulfonyl)-N-[[2-(methylamino)-6-[4-(trifluoromethyl)phenyl]pyrimidin-4-yl]methyl]pyrrolidine-2-carboxamide]: the negative logarithm of the IC50 (pIC50) was 7.54.
Turning to `O=C(NCc1cc(-c2ccc(C(F)(F)F)cc2)nc(OCc2ccccc2)n1)[C@@H]1CCCN1S(=O)(=O)c1cc2ccccc2o1` [Example 327, (2S)-1-(benzofuran-2-ylsulfonyl)-N-[[2-benzyloxy-6-[4-(trifluoromethyl)phenyl]pyrimidin-4-yl]methyl]pyrrolidine-2-carboxamide], the pIC50 was 8.37.
Consider `CN(C)[C@@H]1C[C@@H](C(=O)NCc2ccnc(-c3ccc(C(F)(F)F)cc3O)c2)N(S(=O)(=O)c2cc3ccccc3o2)C1` [Example 334, (2S,4R)-1-(benzofuran-2-ylsulfonyl)-4-(dimethylamino)-N-[[2-[2-hydroxy-4-(trifluoromethyl)phenyl]-4-pyridyl]methyl]pyrrolidine-2-carboxamide], for which the pIC50 was 6.20.
With `CC[C@H](NS(=O)(=O)c1cc2cc(F)ccc2o1)C(=O)NCc1cc(-c2ccc(C(F)(F)F)cn2)ccn1` [Example 335, (2S)-2-[(5-fluorobenzofuran-2-yl)sulfonylamino]-N-[[4-[5-(trifluoromethyl)-2-pyridyl]-2-pyridyl]methyl]butaneamide], the pIC50 was 7.27.
`CC(C)(C)OC(=O)c1ccc(CNC(=O)[C@@H]2CCCN2S(=O)(=O)c2cc3ccccc3o2)cc1-c1ccc(C(F)(F)F)cc1` [Example 336, tert-butyl 4-[[[(2S)-1-(benzofuran-2-ylsulfonyl)pyrrolidine-2-carbonyl]amino]methyl]-2-[4-(trifluoromethyl)phenyl]-benzoate]: the pIC50 was 8.24.
The same measure for `CN(C)C(=O)c1ccc(CNC(=O)[C@@H]2CCCN2S(=O)(=O)c2cc3ccccc3o2)cc1-c1ccc(C(F)(F)F)cc1` [Example 337, (2S)-1-(benzofuran-2-ylsulfonyl)-N-[[4-(dimethylcarbamoyl)-3-[4-(trifluoromethyl)phenyl]-phenyl]methyl]pyrrolidine-2-carboxamide]: 7.66.
Take “(2S)-1-(5-fluorobenzofuran-2-yl)sulfonyl-N-[[3-[2-methyl-5-(trifluoromethyl)pyrazol-3-yl]phenyl]methyl]pyrrolidine-2-carboxamide [Example 164]”: the negative logarithm of the IC50 (pIC50) is 8.15.
For the compound “(2S)-1-(5-fluorobenzofuran-2-yl)sulfonyl-N-[[3-[[2-morpholino-4-pyridyl)-methoxy]phenyl]-methyl]pyrrolidine-2-carboxamide [Example 18]”, the pIC50 was 7.92.
